# Assay results from article PMC7265341, “Quantifying CDK inhibitor selectivity in live cells” (Nature Communications, 2020).
# pIC50: −log10 of the molar value. Where two headings read alike, the source gives them in different places.
# How the values were obtained:
# CDK20/Cyclin H = CDK20/Cyclin H (Homo sapiens, UniProt Q8IZL9); assay: NanoBRET live-cell target engagement, NanoLuc-CDK20/Cyclin H in HEK-293; format: binding; settings: for inhibition at 10 µM: CDK20/H; for pIC50: read-out: Cheng-Prusoff IC50 Replot: IC50
# CDK9/Cyclin K = CDK9/Cyclin K (Homo sapiens, UniProt P50750); assay: NanoBRET live-cell target engagement, NanoLuc-CDK9/Cyclin K in HEK-293; format: binding; settings: CDK9/K, 10µM
# CDK19/Cyclin C = CDK19/Cyclin C (Homo sapiens, UniProt Q9BWU1); assay: NanoBRET live-cell target engagement, NanoLuc-CDK19/Cyclin C in HEK-293; settings: 10µM
# CDK8/Cyclin C = CDK8/Cyclin C (Homo sapiens, UniProt P49336); assay: NanoBRET live-cell target engagement, NanoLuc-CDK8/Cyclin C in HEK-293; format: binding; settings: CDK8/C, 10µM
# CDK12/Cyclin K = CDK12/Cyclin K (Homo sapiens, UniProt Q9NYV4); assay: NanoBRET live-cell target engagement, CDK12-NanoLuc/Cyclin K in HEK-293; format: binding; settings: CDK12/K, 10µM
# CDK13/Cyclin K = CDK13/Cyclin K (Homo sapiens, UniProt Q14004); assay: NanoBRET live-cell target engagement, CDK13-NanoLuc/Cyclin K in HEK-293; format: binding; settings: CDK13/K, 10µM
# CDK10/Cyclin L2 = CDK10/Cyclin L2 (Homo sapiens, UniProt Q15131); assay: NanoBRET live-cell target engagement, CDK10-NanoLuc/Cyclin L2 in HEK-293; settings: 10µM
# CDK7 = CDK7 (Homo sapiens, UniProt P50613); assay: NanoBRET live-cell target engagement, NanoLuc-CDK7 in HEK-293; format: binding; settings: CDK7, 10µM
# CDK2/Cyclin E1 = CDK2/Cyclin E1 (Homo sapiens, UniProt P24941); assay: NanoBRET live-cell target engagement, CDK2-NanoLuc/Cyclin E1 in HEK-293; format: binding; settings: CDK2/E1
# [1] = read-out: Inhibition at 10µM (%) Replicate 1
# [2] = read-out: Inhibition at 10µM (%) Replicate 2
# [3] = average of replicates, read-out: Inhibition at 10µM (%) Average
# Sequence of CDK9/Cyclin K (P50750 whole entry): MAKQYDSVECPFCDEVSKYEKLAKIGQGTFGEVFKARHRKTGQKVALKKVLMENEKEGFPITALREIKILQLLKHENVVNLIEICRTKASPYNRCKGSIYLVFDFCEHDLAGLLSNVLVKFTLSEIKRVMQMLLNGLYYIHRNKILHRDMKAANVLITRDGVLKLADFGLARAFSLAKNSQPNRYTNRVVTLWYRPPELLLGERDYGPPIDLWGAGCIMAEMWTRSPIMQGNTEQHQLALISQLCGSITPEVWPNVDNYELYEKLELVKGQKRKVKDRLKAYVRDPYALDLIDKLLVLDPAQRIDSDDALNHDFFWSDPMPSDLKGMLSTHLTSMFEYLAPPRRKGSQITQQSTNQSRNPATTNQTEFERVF
# Sequence of CDK9/Cyclin K (O75909 whole entry partner): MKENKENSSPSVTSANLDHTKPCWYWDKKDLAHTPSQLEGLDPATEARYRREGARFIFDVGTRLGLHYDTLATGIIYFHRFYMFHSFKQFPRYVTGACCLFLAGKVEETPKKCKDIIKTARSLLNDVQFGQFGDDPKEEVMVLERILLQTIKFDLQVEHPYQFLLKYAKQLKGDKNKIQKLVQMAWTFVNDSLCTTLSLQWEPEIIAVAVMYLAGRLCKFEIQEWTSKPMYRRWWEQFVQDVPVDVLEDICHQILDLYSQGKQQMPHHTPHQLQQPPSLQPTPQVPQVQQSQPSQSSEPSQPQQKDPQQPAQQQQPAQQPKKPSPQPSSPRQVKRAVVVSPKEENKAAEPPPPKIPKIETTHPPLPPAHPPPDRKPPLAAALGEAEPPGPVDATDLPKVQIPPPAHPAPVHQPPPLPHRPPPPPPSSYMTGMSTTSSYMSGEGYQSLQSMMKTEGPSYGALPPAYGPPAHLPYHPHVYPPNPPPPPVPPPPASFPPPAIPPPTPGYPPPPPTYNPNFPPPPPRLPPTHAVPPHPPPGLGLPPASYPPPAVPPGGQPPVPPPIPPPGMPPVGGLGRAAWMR
# Sequence of CDK8/Cyclin C (P49336 whole entry): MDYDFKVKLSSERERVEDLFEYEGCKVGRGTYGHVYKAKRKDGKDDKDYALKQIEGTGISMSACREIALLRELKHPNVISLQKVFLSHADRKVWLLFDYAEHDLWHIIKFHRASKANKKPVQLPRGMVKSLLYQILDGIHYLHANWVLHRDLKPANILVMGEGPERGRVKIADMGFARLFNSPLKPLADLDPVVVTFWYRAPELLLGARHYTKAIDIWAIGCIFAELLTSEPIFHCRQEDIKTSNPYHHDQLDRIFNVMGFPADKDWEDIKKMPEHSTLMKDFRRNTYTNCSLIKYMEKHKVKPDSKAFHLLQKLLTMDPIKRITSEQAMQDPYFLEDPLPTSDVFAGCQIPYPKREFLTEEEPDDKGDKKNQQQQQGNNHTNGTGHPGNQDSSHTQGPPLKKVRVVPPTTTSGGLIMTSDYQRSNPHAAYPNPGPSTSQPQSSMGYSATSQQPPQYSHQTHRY
# Sequence of CDK8/Cyclin C (P24863 whole entry partner): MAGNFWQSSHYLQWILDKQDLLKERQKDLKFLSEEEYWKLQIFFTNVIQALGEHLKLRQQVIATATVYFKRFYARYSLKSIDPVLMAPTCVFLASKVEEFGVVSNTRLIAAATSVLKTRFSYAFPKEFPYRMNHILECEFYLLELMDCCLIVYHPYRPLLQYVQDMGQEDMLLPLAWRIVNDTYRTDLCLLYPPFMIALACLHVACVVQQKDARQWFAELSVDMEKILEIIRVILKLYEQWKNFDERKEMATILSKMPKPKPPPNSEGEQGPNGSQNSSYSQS
# Sequence of CDK12/Cyclin K (Q9NYV4 1-1481 isoform Q9NYV4-2): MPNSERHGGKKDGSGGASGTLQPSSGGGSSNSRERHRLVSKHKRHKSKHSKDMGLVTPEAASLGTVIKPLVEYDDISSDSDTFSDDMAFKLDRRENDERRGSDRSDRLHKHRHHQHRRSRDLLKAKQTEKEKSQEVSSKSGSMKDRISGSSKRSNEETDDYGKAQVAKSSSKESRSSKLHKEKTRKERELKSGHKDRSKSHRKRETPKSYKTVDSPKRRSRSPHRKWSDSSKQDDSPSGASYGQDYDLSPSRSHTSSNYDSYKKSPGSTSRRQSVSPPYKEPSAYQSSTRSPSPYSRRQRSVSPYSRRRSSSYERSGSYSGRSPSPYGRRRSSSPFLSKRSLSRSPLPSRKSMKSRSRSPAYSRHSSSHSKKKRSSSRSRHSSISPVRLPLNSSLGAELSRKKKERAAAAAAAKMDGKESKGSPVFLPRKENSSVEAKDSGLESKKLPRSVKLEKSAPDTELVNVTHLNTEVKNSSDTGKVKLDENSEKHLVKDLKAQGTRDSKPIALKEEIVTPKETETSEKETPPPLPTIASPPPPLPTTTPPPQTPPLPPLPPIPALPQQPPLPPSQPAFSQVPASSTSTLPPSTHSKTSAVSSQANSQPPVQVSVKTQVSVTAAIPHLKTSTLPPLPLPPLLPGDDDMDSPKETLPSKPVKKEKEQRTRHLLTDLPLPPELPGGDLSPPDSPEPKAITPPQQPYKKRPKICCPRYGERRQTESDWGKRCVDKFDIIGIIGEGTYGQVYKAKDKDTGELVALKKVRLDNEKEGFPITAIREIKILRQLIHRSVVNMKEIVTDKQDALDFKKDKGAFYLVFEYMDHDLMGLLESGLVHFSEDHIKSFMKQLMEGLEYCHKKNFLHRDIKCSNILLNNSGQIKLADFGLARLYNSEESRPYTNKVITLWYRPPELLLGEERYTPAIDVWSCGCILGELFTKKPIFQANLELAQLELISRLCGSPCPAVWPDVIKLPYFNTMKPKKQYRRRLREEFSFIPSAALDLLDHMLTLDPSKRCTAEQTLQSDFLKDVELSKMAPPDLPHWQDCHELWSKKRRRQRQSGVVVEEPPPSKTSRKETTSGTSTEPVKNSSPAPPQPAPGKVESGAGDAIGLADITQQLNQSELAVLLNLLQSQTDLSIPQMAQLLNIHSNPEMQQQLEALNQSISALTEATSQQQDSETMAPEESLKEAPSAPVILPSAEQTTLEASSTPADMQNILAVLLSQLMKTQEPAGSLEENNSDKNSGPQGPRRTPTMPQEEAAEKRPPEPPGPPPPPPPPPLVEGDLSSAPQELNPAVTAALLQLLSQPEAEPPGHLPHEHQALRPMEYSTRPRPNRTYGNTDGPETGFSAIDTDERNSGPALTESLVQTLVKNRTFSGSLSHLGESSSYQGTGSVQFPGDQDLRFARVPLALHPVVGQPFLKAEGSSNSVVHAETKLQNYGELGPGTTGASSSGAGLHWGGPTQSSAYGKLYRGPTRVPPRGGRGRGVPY
# Sequence of CDK12/Cyclin K (O75909 whole entry partner): as the sequence (O75909 whole entry partner) above
# Sequence of CDK10/Cyclin L2 (Q15131 whole entry): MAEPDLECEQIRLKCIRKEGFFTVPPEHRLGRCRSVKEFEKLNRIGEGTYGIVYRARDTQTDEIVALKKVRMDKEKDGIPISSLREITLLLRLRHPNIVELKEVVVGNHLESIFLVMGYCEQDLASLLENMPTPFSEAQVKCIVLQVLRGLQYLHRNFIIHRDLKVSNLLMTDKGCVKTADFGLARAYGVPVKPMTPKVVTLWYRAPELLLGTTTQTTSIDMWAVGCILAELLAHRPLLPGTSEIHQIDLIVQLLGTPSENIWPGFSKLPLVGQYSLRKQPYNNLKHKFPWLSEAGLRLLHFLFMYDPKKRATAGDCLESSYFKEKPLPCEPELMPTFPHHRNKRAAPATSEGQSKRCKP
# Sequence of CDK7 (P50613 whole entry): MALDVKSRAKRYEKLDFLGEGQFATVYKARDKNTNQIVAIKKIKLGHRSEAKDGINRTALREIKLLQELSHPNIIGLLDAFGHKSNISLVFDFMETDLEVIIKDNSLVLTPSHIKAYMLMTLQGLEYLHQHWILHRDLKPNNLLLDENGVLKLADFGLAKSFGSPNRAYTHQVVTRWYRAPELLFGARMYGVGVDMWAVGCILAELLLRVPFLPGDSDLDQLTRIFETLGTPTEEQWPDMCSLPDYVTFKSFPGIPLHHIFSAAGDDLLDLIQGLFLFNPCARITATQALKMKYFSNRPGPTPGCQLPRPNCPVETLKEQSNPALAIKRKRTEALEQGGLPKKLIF
# Sequence of CDK20/Cyclin H (Q8IZL9 whole entry): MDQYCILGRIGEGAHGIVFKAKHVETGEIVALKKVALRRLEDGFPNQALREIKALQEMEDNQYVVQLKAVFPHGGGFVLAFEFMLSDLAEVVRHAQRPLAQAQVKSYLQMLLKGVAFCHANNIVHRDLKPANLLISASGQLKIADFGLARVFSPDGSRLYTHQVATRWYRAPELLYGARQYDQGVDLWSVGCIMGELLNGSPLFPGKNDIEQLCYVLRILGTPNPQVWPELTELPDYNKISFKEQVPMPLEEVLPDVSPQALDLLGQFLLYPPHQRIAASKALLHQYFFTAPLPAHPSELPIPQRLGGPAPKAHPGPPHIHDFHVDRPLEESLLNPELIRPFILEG
# Sequence of CDK20/Cyclin H (P51946 whole entry partner): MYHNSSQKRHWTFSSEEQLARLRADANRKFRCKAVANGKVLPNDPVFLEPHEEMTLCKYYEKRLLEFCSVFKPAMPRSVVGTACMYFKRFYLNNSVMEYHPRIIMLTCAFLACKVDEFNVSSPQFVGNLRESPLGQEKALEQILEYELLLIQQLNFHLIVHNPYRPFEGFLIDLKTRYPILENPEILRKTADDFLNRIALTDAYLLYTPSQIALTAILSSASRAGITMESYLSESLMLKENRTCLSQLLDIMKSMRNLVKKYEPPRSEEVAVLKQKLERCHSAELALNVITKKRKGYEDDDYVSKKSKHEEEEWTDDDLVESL
structure (smiles),measurement,setting,value
O=C(NC1CCNCC1)c1[nH]ncc1NC(=O)c1c(Cl)cccc1Cl [AT7519],inhibition at 10 µM,CDK20/Cyclin H; [1],30%
same,inhibition at 10 µM,CDK20/Cyclin H; [2],39.7%
same,inhibition at 10 µM,CDK9/Cyclin K; [3],98.6%
same,inhibition at 10 µM,CDK9/Cyclin K; [1],98%
same,inhibition at 10 µM,CDK9/Cyclin K; [2],99.2%
same,inhibition at 10 µM,"CDK19/Cyclin C; read-out: Inhibition at 10µM (%) Average, CDK19/C, average of replicates",41.9%
same,inhibition at 10 µM,"CDK19/Cyclin C; read-out: Inhibition at 10µM (%) Replicate 1, CDK19/C",45.9%
same,inhibition at 10 µM,"CDK19/Cyclin C; read-out: Inhibition at 10µM (%) Replicate 2, CDK19/C",37.9%
same,inhibition at 10 µM,CDK8/Cyclin C; [3],29.8%
same,inhibition at 10 µM,CDK8/Cyclin C; [1],34.8%
same,inhibition at 10 µM,CDK8/Cyclin C; [2],24.8%
same,inhibition at 10 µM,CDK12/Cyclin K; [3],52.7%
same,inhibition at 10 µM,CDK12/Cyclin K; [1],52.9%
same,inhibition at 10 µM,CDK12/Cyclin K; [2],52.5%
same,inhibition at 10 µM,CDK13/Cyclin K; [3],47.1%
same,inhibition at 10 µM,CDK13/Cyclin K; [1],44.4%
same,inhibition at 10 µM,CDK13/Cyclin K; [2],49.7%
same,inhibition at 10 µM,"CDK10/Cyclin L2; read-out: Inhibition at 10µM (%) Average, CDK10/L2, average of replicates",77%
same,inhibition at 10 µM,"CDK10/Cyclin L2; read-out: Inhibition at 10µM (%) Replicate 1, CDK10/L2",77.8%
same,inhibition at 10 µM,"CDK10/Cyclin L2; read-out: Inhibition at 10µM (%) Replicate 2, CDK10/L2",76.2%
same,inhibition at 10 µM,CDK7; [3],87.6%
same,inhibition at 10 µM,CDK7; [1],89.4%
same,inhibition at 10 µM,CDK7; [2],85.8%
CNC(=O)c1ccccc1Nc1nc(Nc2ccc(N3CCNCC3)cc2)ncc1Cl [CTx-0294885],pIC50,CDK20/Cyclin H; CDK20 with probe 4 at 0.5 uM,5.85
same,pIC50,CDK20/Cyclin H; CDK20 with probe 4 at 1 uM,5.80
same,pIC50,CDK20/Cyclin H; CDK20 with probe 4 at […],5.82
same,CDK20 engagement at 10 µM,CDK20/Cyclin H; live HEK-293,> 50%
CC[C@H](CO)Nc1nc(Nc2cccc(-c3ccccn3)c2)c2ncn(C(C)C)c2n1 [(R) - DRF053],IC50,"CDK2/Cyclin E1; n=3 average ± SEM, n=2 average to 2 significant figures, read-out: IC50 (nM) Average*",410 nM
same,IC50,CDK2/Cyclin E1; read-out: IC50 (nM) Replicate 1,370 nM
same,IC50,CDK2/Cyclin E1; read-out: IC50 (nM) Replicate 2,450 nM
